From ChEMBL document CHEMBL1201862, “PubChem BioAssay data set” (2004)
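Tested at 5 concentrations; 48 h exposure; 96-well plates; endpoints linearly interpolated, else capped at highest concentration. At the GI50, growth is halved.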 Calls of active or inactive are those of the source. No stated cut-off is given here; in the data, active = GI50 up to about 1.1 µM and inactive = higher.

Tests used:
Assay in all cases: NCI tumour cell line growth inhibition, 48 h
A549 = system: A549
OVCAR-5 = system: OVCAR-5
LOX IMVI = system: LOX IMVI
NCI-H460 = system: NCI-H460
HCT-15 = system: HCT-15
K562 = system: K562
RXF 393 = system: RXF 393
OVCAR-3 = system: OVCAR-3
CAKI-1 = system: CAKI-1
MOLT-4 = system: MOLT-4
NCI-H226 = system: NCI-H226
OVCAR-4 = system: OVCAR-4
TK-10 = system: TK-10
OVCAR-8 = system: OVCAR-8
U-251 = system: U-251
RPMI-8226 = system: RPMI-8226

Compound | GI50 (A549) | GI50 (OVCAR-5) | GI50 (LOX IMVI) | GI50 (NCI-H460) | GI50 (HCT-15) [µM] | GI50 (K562) | GI50 (RXF 393) | GI50 (OVCAR-3) | GI50 (CAKI-1) | GI50 (MOLT-4) | GI50 (NCI-H226) | GI50 (OVCAR-4) | GI50 (TK-10) | GI50 (OVCAR-8) | GI50 (U-251) | GI50 (RPMI-8226)
C#CC(C)(C)Oc1cc(O)c2c(=O)c3ccccc3n(C)c2c1 | > 100 µM (inactive) | > 100 µM (inactive) | 19.3 µM (inactive) | 24.5 µM (inactive) | > 100 | > 100 µM (inactive) | > 100 µM (inactive) | > 100 µM (inactive) | > 100 µM (inactive) | > 100 µM (inactive) | > 100 µM (inactive) | > 100 µM (inactive) | > 100 µM (inactive) | 35.8 µM (inactive) | 42.1 µM (inactive) | –
O=[N+]([O-])c1ccc(N=P(c2ccccc2)(c2ccccc2)c2ccccc2)n2nnnc12 | 40.6 µM (inactive) | > 100 µM (inactive) | > 100 µM (inactive) | 44.6 µM (inactive) | > 100 | 67 µM (inactive) | 44 µM (inactive) | 34.5 µM (inactive) | 45.1 µM (inactive) | 77.8 µM (inactive) | – | 31.8 µM (inactive) | > 100 µM (inactive) | 31 µM (inactive) | 54.8 µM (inactive) | 35.7 µM (inactive)
O=C(Nc1ccccc1C(=O)NC(=O)c1ccccc1NC(=O)c1ccccc1)c1ccccc1 | 7.53 µM (inactive) | 3.6 µM (inactive) | 2.24 µM (inactive) | 7.71 µM (inactive) | 16.9 | 4.83 µM (inactive) | 2.88 µM (inactive) | 3.29 µM (inactive) | 10.6 µM (inactive) | – | – | 3.41 µM (inactive) | 10.9 µM (inactive) | 5.04 µM (inactive) | 3.49 µM (inactive) | 1.46 µM (inactive)
N#Cc1nc(Nc2ccc([N+](=O)[O-])cc2)sc1N | 23.9 µM (inactive) | 28.6 µM (inactive) | 7.19 µM (inactive) | 28.8 µM (inactive) | 12.5 | 8.75 µM (inactive) | – | 16.9 µM (inactive) | 11.9 µM (inactive) | 2.48 µM (inactive) | 27.4 µM (inactive) | 33.8 µM (inactive) | 22.9 µM (inactive) | 19.4 µM (inactive) | 9.68 µM (inactive) | 3.45 µM (inactive)
C=C1C(=O)OC2C/C(C)=C/CC/C(C)=C/CCC3(COC(C)=O)OC3CC12 (stereo not given) | 16.4 µM (inactive) | 16.5 µM (inactive) | 9.46 µM (inactive) | 12.7 µM (inactive) | 2.81 | 5.68 µM (inactive) | 2.51 µM (inactive) | 6.19 µM (inactive) | 3.31 µM (inactive) | 4.42 µM (inactive) | – | 26.7 µM (inactive) | 7.14 µM (inactive) | 6.52 µM (inactive) | 11.2 µM (inactive) | 2.53 µM (inactive)
COc1ccccc1NC(=O)NS(=O)(=O)c1ccccc1 | > 100 µM (inactive) | > 100 µM (inactive) | > 100 µM (inactive) | > 100 µM (inactive) | – | – | 28.9 µM (inactive) | – | 91.6 µM (inactive) | – | 87.1 µM (inactive) | > 100 µM (inactive) | > 100 µM (inactive) | > 100 µM (inactive) | > 100 µM (inactive) | –
O=C1C2C3C=C4c5ccccc5N(c5ccccc5)C4([C@@H]2C(=O)N1c1ccc(F)cc1)[C@H]1C(=O)N(c2ccc(F)cc2)C(=O)[C@@H]31 (stereo not given in full) | > 100 µM (inactive) | > 100 µM (inactive) | > 100 µM (inactive) | – | > 100 | > 100 µM (inactive) | 81.3 µM (inactive) | > 100 µM (inactive) | – | > 100 µM (inactive) | > 100 µM (inactive) | – | > 100 µM (inactive) | > 100 µM (inactive) | > 100 µM (inactive) | > 100 µM (inactive)
C=C1CC2OC(=O)C(=C)C2C(O)C2C(=C)CCC12 (stereo not given) | 14.4 µM (inactive) | 12.3 µM (inactive) | – | 14.7 µM (inactive) | – | 3.47 µM (inactive) | 4.05 µM (inactive) | 10.1 µM (inactive) | 5.25 µM (inactive) | 2.75 µM (inactive) | 20.4 µM (inactive) | – | 14.8 µM (inactive) | 4.1 µM (inactive) | 16.8 µM (inactive) | 2.81 µM (inactive)
COc1cc(Nc2cnc3cc(C(F)(F)F)ccc3n2)cc(OC)c1OC | > 100 µM (inactive) | > 100 µM (inactive) | > 100 µM (inactive) | > 100 µM (inactive) | > 100 | – | > 100 µM (inactive) | > 100 µM (inactive) | – | > 100 µM (inactive) | > 100 µM (inactive) | – | > 100 µM (inactive) | > 100 µM (inactive) | > 100 µM (inactive) | > 100 µM (inactive)
CCCCOC(=O)NC(=O)c1cn(CCCOC(=O)CCCCCCCCC(=O)OCCCn2cc(C(=O)NC(=O)OCCCC)c(=O)[nH]c2=O)c(=O)[nH]c1=O | > 100 µM (inactive) | > 100 µM (inactive) | > 100 µM (inactive) | > 100 µM (inactive) | > 100 | > 100 µM (inactive) | 83 µM (inactive) | > 100 µM (inactive) | – | > 100 µM (inactive) | > 100 µM (inactive) | > 100 µM (inactive) | > 100 µM (inactive) | > 100 µM (inactive) | > 100 µM (inactive) | > 100 µM (inactive)
CC(C)N(C(=O)C12C3C4C1C1C2C3C41C(=O)C(C)(C)C)C(C)C (stereo not given) | > 100 µM (inactive) | > 100 µM (inactive) | > 100 µM (inactive) | – | – | 20.8 µM (inactive) | – | > 100 µM (inactive) | > 100 µM (inactive) | 26.7 µM (inactive) | – | > 100 µM (inactive) | > 100 µM (inactive) | > 100 µM (inactive) | > 100 µM (inactive) | 31.9 µM (inactive)
CC1=C(C(=O)NCc2ccccc2)C(/C=C/c2ccccc2)C(C(=O)NCc2ccccc2)=C(C)N1 | > 100 µM (inactive) | > 100 µM (inactive) | > 100 µM (inactive) | > 100 µM (inactive) | > 100 | > 100 µM (inactive) | > 100 µM (inactive) | > 100 µM (inactive) | > 100 µM (inactive) | > 100 µM (inactive) | > 100 µM (inactive) | > 100 µM (inactive) | > 100 µM (inactive) | > 100 µM (inactive) | – | > 100 µM (inactive)
O=C(c1ccccc1)c1nc2ccc(Cl)cc2c2c1Cc1ccccc1-2 | > 100 µM (inactive) | > 100 µM (inactive) | > 100 µM (inactive) | – | > 100 | > 100 µM (inactive) | > 100 µM (inactive) | > 100 µM (inactive) | > 100 µM (inactive) | > 100 µM (inactive) | > 100 µM (inactive) | > 100 µM (inactive) | > 100 µM (inactive) | > 100 µM (inactive) | > 100 µM (inactive) | > 100 µM (inactive)
Cc1cc(Cl)ccc1NC(=O)CCCC(=O)C1C/C(=N/O)CC/C1=N\O (stereo not given) | > 100 µM (inactive) | > 100 µM (inactive) | – | > 100 µM (inactive) | > 100 | > 100 µM (inactive) | – | > 100 µM (inactive) | > 100 µM (inactive) | > 100 µM (inactive) | > 100 µM (inactive) | > 100 µM (inactive) | > 100 µM (inactive) | > 100 µM (inactive) | > 100 µM (inactive) | > 100 µM (inactive)
